Format in all cases: cell-based
Experiment [1] has as its target T1, N-type calcium channel (NTCC) (Homo sapiens, UniProt Q00975). Briefly: FLIPR calcium mobilization assay for N-type calcium channel (differentiated IMR32 cells). As to conditions: calcium mobilization in vitro assay; N-type calcium channel block. The arrangement: differentiated IMR32 cells were treated with 1×; endogenous in cells; host or cells: IMR32 cells (ATCC), differentiated 8 days with dibutyryl cAMP and bromodeoxyuridine. Here is the method: Cell maintenance and differentiation. Unless noted otherwise, cell culture reagents were purchased from Mediatech of Herndon, Md. IMR32 cells (American Type Culture Collection, ATCC, Manassas, Va.) were routinely cultured in growth medium consisting of minimum essential medium containing 10% fetal bovine serum (FBS, Hyclone, Logan, Utah), 100 U/mL penicillin, 100 μg/mL streptomycin, 2 mM L-glutamine, 1 mM sodium pyruvate, and 1×MEM non-essential amino acids. 80-90% confluent flasks of cells were differentiated using the following differentiation medium: Growth medium plus 1 mM dibutyryl cyclic AMP (Sigma, St. Louis, Mo.), and 2.5 μM bromodeoxyuridine (Sigma). […]
CellStripper, and seeded on poly-D-lysine-coated 96-well clear-bottom black plates (Becton Dickinson, Franklin Lakes, N.J.) at 200,000 cells/well. […] Plates were then transferred to a Fluorimetric Imaging Plate Reader (FLIPR^96, Molecular Devices, Inc., Sunnyvale, Calif.) for assay. The FLIPR measured basal Fluo-4 fluorescence for 315 seconds (i.e., 5 minutes and 15 seconds), then added 0.1 mL KCl agonist dissolved in IMR32 buffer and measured fluorescence for another 45 seconds. Final test compound concentrations on the cells after FLIPR read ranged from about 846 pM to about 17 μM, final nitrendipine concentration was 5 μM, and final KCl concentration was 90 mM. […]
Background: Calcium flux is commonly read through the fluorescence of an indicator in the cells.

Experiment [2] addresses T1, N-type calcium channel (NTCC). The experiment is described as above. Set-up: endogenous in cells; host or cells: IMR32 cells (ATCC), differentiated 8 days with dibutyryl cAMP and bromodeoxyuridine. As to conditions: calcium mobilization in vitro assay; N-type calcium channel block. Here is the method:
Cell maintenance and differentiation. Unless noted otherwise, cell culture reagents were purchased from Mediatech of Herndon, Md. IMR32 cells (American Type Culture Collection, ATCC, Manassas, Va.) were routinely cultured in growth medium consisting of minimum essential medium containing 10% fetal bovine serum (FBS, Hyclone, Logan, Utah), 100 U/mL penicillin, 100 μg/mL streptomycin, 2 mM L-glutamine, 1 mM sodium pyruvate, and 1×MEM non-essential amino acids. 80-90% confluent flasks of cells were differentiated using the following differentiation medium: Growth medium plus 1 mM dibutyryl cyclic AMP (Sigma, St. Louis, Mo.), and 2.5 μM bromodeoxyuridine (Sigma). Cells were differentiated for 8 days by replacing differentiation medium every 2-3 days.
FLIPR Calcium Mobilization Assay for N-type Calcium Channel. One day prior to performing this assay, differentiated IMR32 cells were treated with 1×
CellStripper, and seeded on poly-D-lysine-coated 96-well clear-bottom black plates (Becton Dickinson, Franklin Lakes, N.J.) at 200,000 cells/well. On the day of the assay, the cell plates were washed with IMR32 buffer (127 mM NaCl, 1 mM KCl, 2 mM MgCl2, 700 μM NaH2PO4, 5 mM CaCl2, 5 mM NaHCO3, 8 mM HEPES, 10 mM glucose, pH 7.4), then pre-stimulated with KCl and loaded as follows: 0.05 mL of IMR32 buffer, 0.05 mL of each compound tested diluted in IMR32 buffer containing 20 μM nitrendipine (Sigma), and 0.1 mL KCl dissolved in IMR32 buffer, plus Fluo-4 were added (3 μM final concentration, Molecular Probes, Eugene, Oreg.). Final test compound concentrations ranged from about 846 pM to about 17 μM, final nitrendipine concentration was 5 μM, and final KCl concentration was 90 mM. After 1 hour, the cells were washed twice with 0.05 mL of each compound tested in nitrendipine-containing IMR32 buffer (no KCl or Fluo-4), and then replaced with 0.1 mL of each compound tested in nitrendipine-containing IMR32 buffer. Plates were then transferred to a Fluorimetric Imaging Plate Reader (FLIPR^96, Molecular Devices, Inc., Sunnyvale, Calif.) for assay. The FLIPR measured basal Fluo-4 fluorescence for 315 seconds (i.e., 5 minutes and 15 seconds), then added 0.1 mL KCl agonist dissolved in IMR32 buffer and measured fluorescence for another 45 seconds. Final test compound concentrations on the cells after FLIPR read ranged from about 846 pM to about 17 μM, final nitrendipine concentration was 5 μM, and final KCl concentration was 90 mM. Data were collected over the entire time course and analyzed using Excel, Graph Pad Prism (version 3.02, Graph Pad, San Diego, Calif.), or an in-house non-linear regression analysis software.

Experiment [3] deals with T2, L-type calcium channel (LTCC) (Rattus norvegicus, UniProt P22002).
T2 construct: The 6.5 kb cDNA encoding the L-type calcium channel α1c subunit was cloned by PCR amplification from rat heart cDNA; expressed in transfected cells; host or cells: HEK293 (ATCC), stably transfected
T2 sequence (P22002 whole entry): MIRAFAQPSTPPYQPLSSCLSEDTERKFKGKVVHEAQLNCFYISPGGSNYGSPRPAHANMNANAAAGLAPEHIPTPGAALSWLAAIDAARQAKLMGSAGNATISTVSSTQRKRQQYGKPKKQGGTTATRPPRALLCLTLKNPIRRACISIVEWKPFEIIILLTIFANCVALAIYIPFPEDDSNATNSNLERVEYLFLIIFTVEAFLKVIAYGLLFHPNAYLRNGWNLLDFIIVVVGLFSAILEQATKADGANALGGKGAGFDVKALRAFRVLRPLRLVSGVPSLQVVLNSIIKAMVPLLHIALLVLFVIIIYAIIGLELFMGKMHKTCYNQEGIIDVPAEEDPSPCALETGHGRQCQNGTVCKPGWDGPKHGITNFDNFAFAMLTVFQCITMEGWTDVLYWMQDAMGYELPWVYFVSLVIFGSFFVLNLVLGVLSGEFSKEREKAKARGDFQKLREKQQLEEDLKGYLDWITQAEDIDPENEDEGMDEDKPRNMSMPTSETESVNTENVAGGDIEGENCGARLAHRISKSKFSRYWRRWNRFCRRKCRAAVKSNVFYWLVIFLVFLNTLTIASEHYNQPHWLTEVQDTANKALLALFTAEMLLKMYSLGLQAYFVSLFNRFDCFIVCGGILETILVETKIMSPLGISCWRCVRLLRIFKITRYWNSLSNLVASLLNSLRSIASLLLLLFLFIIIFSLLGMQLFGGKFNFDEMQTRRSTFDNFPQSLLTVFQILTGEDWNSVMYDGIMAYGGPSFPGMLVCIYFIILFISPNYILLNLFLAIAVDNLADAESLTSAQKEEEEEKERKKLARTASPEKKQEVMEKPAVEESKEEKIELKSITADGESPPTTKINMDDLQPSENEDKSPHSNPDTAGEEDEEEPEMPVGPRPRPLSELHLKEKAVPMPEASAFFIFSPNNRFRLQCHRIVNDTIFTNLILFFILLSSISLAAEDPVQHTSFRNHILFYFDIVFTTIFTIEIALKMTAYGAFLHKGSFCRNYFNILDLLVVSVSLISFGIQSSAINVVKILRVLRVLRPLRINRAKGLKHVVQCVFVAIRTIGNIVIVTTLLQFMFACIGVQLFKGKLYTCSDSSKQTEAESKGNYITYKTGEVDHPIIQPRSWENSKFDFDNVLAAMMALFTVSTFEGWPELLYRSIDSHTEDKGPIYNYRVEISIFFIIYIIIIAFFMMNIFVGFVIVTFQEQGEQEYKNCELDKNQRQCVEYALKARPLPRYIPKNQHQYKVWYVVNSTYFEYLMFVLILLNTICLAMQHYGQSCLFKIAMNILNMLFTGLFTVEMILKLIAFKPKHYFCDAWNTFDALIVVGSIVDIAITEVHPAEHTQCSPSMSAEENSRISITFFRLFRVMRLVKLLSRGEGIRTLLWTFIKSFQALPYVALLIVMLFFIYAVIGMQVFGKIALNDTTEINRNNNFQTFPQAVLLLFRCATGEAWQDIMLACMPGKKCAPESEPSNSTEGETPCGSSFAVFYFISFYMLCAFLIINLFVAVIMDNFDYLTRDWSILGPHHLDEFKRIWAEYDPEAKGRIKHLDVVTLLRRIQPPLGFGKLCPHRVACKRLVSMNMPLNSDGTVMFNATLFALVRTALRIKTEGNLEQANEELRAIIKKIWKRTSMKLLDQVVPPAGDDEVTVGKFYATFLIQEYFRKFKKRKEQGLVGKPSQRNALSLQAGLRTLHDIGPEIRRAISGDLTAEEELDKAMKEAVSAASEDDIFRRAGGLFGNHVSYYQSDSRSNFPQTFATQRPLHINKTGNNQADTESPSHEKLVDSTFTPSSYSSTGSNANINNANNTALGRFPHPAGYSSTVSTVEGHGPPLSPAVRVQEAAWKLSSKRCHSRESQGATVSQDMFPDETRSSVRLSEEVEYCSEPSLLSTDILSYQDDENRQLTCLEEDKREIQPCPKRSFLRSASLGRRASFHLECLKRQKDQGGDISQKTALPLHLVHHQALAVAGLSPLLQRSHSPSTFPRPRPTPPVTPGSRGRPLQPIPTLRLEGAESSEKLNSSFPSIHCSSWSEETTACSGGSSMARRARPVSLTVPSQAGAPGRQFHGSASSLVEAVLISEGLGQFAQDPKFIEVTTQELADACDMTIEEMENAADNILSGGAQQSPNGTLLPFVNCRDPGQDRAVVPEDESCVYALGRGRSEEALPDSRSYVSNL
T2 sequence (P54290 25-944 partner limits assumed): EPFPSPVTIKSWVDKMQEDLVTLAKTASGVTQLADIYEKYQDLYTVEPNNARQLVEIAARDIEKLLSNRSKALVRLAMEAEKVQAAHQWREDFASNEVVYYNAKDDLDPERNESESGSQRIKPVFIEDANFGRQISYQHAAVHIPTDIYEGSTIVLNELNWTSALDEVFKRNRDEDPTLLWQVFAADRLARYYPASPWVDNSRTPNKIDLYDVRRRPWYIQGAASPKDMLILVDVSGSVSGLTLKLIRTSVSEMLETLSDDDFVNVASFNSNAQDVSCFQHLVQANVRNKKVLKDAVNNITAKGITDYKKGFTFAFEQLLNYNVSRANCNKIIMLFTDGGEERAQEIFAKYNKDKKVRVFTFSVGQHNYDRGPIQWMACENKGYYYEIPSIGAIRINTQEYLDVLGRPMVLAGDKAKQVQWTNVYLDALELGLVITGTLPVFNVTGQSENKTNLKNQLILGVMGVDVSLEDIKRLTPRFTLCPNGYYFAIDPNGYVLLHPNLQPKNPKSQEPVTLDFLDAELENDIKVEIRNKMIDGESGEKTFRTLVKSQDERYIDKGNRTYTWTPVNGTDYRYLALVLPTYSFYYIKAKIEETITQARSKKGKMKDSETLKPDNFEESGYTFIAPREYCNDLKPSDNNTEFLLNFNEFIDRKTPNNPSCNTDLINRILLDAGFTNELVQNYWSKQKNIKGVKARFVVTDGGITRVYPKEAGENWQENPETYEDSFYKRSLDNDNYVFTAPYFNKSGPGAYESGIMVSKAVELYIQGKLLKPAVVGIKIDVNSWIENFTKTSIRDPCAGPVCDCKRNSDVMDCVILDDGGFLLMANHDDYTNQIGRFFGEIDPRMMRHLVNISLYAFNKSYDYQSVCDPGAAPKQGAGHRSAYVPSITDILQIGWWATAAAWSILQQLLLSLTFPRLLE
T2 sequence (P54290 945-1091 partner limits assumed): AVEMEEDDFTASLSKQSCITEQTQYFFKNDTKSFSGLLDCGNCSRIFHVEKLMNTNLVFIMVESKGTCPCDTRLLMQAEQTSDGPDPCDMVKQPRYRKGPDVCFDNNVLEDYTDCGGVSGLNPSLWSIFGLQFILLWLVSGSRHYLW
T2 sequence (P54283 whole entry partner): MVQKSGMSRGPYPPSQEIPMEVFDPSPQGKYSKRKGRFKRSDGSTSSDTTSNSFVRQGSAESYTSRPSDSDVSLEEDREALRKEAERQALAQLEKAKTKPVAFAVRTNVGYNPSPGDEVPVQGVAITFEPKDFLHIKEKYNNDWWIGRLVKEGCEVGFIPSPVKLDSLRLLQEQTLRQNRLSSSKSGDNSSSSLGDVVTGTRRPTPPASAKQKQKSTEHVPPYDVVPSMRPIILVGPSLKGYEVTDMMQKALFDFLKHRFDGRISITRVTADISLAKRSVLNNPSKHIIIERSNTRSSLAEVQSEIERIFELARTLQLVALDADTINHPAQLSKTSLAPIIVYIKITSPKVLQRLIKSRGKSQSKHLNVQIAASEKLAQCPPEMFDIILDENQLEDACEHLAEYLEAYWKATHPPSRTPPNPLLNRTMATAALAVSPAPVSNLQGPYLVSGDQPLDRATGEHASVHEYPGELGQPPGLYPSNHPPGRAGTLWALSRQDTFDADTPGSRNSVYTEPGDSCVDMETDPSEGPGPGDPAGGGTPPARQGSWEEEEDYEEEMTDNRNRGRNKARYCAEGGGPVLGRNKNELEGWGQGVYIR
The experiment is described as follows: FLIPR calcium mobilization assay for L-type calcium channel (HEK293 cells expressing recombinant rat LTCC subunits, or alternatively differentiated A7r5 cells). Conditions: calcium mobilization in vitro assay; L-type calcium channel block. As to the method: A7r5 (ATCC) cells were maintained and routinely cultured in A7r5 growth medium consisting of Dulbecco's Modified Eagles Medium containing 10% FBS, 100 U/mL penicillin, 100 μg/mL streptomycin, 4 mM L-glutamine, and 0.15% sodium bicarbonate. 80-90% confluent flasks of cells were differentiated using the following differentiation medium: A7r5 Growth Medium plus 1 mM dibutyryl cyclic AMP (Sigma). Cells were differentiated for 8 days by replacing differentiation medium every 2-3 days.
FLIPR Calcium Mobilization Assay for L-type Calcium Channel. One day prior to performing this assay, HEK293 cells stably expressing recombinant rat L-type calcium channel (LTCC) subunits (α1c, α2δ, and β1) are trypsinized, then seeded on poly-D-lysine-coated 96-well clear-bottom black plates (Becton Dickinson, Franklin Lakes, N.J.) at 75,000 cells/well. On the day of the assay, the plates are washed with LTCC wash buffer (127 mM NaCl, 2 mM MgCl2, 700 μM NaH2PO4, 5 mM CaCl2, 5 mM NaHCO3, 8 mM HEPES, 10 mM glucose, pH 7.4), then loaded with 0.1 mL of LTCC wash buffer containing Fluo-4 (3 μM final concentration, Molecular Probes, Eugene, Oreg.). After 1 hour, the cells are washed with 0.1 mL LTCC wash buffer and resuspended in 0.05 mL LTCC assay buffer (same composition as LTCC wash buffer). Plates are then transferred to a FLIPR^96 for assay. The FLIPR measures basal Fluo-4 fluorescence for 15 seconds, then adds 0.05 mL of each compound tested diluted in LTCC assay buffer at final concentrations ranging from about 846 pM to about 17 μM. Fluo-4 fluorescence is then measured for 5 minutes. 0.1 mL KCl agonist dissolved in LTCC assay buffer is then added to the cells to produce a final concentration of 90 mM KCl, and fluorescence is measured for another 45 seconds. Data are collected over the entire time course and analyzed using Excel, Graph Pad Prism, or an in-house regression analysis software.
Alternative FLIPR Calcium Mobilization Assay for L-type Calcium Channel. Alternatively, the following cell line and procedure was used for the FLIPR calcium mobilization assay for L-type calcium channel. One day prior to performing this assay, differentiated A7r5 cells were trypsinized, then seeded on tissue culture treated 96-well clear-bottom black plates (Becton Dickinson, Franklin Lakes, N.J.) at a dilution of 1:1 from a confluent T150 cm^2 flask. On the day of the assay, the plates were washed with A7r5 wash buffer (127 mM NaCl, 2 mM MgCl2, 700 μM NaH2PO4, 5 mM CaCl2, 5 mM NaHCO3, 8 mM HEPES, 10 mM glucose, pH 7.4), then loaded with 0.1 mL of A7r5 wash buffer containing Fluo-4 (3 μM final concentration, Molecular Probes, Eugene, Oreg.). After 1 hour, the cells were washed with 0.1 mL A7r5 wash buffer and resuspended in 0.05 mL A7r5 assay buffer that was composed of A7r5 wash buffer plus 50 μM valinomycin (Sigma). Plates were then transferred to a FLIPR^96 for assay. The FLIPR measured basal Fluo-4 fluorescence for 15 seconds, then added 0.05 mL of each compound tested diluted in A7r5 assay buffer at final concentrations ranging from about 846 pM to about 17 μM. Fluo-4 fluorescence was then measured for 5 minutes. 0.1 mL KCl agonist dissolved in A7r5 assay buffer is then added to the cells to produce a final concentration of 90 mM KCl, and fluorescence was measured for another 45 seconds. Data were collected over the entire time course and analyzed using Excel, Graph Pad Prism, or an in-house regression analysis software.

The structures appear in SMILES notation. pIC50: −log10 of the molar value.

The term pIC50 denotes the IC50 on a negative log10 scale, so that one unit is a factor of ten.

For the compound `CC(C)c1ccc(CN2CCC3(C=Cc4cccnc43)CC2)cc1`, the pIC50 in experiment [1] is 4.70 to 5.00. As for `O=C1OC2(CCN(C(=O)CCC(c3ccc(F)cc3)c3ccc(F)cc3)CC2)c2ccccc21` [Compound 14, 1,3-Dihydro-1′-[4,4-bis(4-fluorophenyl)butanoyl]-spiro[isobenzofuran-1,4′-piperidine]-3-one], the results for the pIC50 in experiment [2] and in experiment [3] were 6.16 and 6.51, respectively.

Turning to `O=C(CCC(c1ccc(F)cc1)c1ccc(F)cc1)N1CCC2(CCc3ccccc32)CC1` [Compound 35, 1-[4,4-bis(4-fluorophenyl)butanoyl]-spiro[piperidine-4,1′-indane]], the negative logarithm of the IC50 (pIC50) in experiment [2] was 5.31; in experiment [3] it was under 4.70. On to `COc1ccc(CN2CCC3(C=Cc4ccccc43)CC2)cc1` [Compound 37, 1-(4-methoxybenzyl)-spiro[piperidine-4,1′-indene]], for which the pIC50 in experiment [2] was 6.09; in experiment [3], 5.26.

Take `Fc1ccc(C(CCCN2CCC3(CC2)OCc2ccccc23)c2ccc(F)cc2)cc1` [Compound 42, 1,3-Dihydro-1′-[4,4-bis(4-fluorophenyl)butyl]-spiro[isobenzofuran-1,4′-piperidine]]: the pIC50 is 5.92 in experiment [2] and 5.59 in experiment [3]. Take `O=C1c2ccccc2C2(CCN(CCCC(c3ccc(F)cc3)c3ccc(F)cc3)CC2)N1Cc1ccccc1` [Compound 51, 2-Benzyl-2,3-dihydro-1′-[4,4-bis(4-fluorophenyl)butyl]-spiro[isoindole-1,4′-piperidine]-3-one]: the results for the pIC50 in experiment [2] and in experiment [3] were 6.26 and 5.19, respectively. Taken in the same sequence, the figures for `O=C1Nc2ccccc2C12CCN(CCCC(c1ccc(F)cc1)c1ccc(F)cc1)CC2` [Compound 60, 2,3-Dihydro-1′-[4,4-bis(4-fluorophenyl)butyl]-spiro[indole-3,4′-piperidine]-2-one] were 5.98 and 5.42. For `O=C1OC2(CCN(CCCN(c3ccc(F)cc3)c3ccc(F)cc3)CC2)c2ccccc21` [Compound 68, 1,3-Dihydro-1′-{3-[N,N-bis(4-fluorophenyl)amino]propyl}-spiro[isobenzofuran-1,4′-piperidine]-3-one], the pIC50 is 6.64 in experiment [2] and under 4.70 in experiment [3].
